1 compound from paper PMC2649430 (Neuropharmacology, 2008) can be followed below.

For test [1], the target named is T1, V219L mutant 5-HT3 receptor (Mus musculus, UniProt P23979, V219L).
T1 sequence (P23979 24-489 V219L): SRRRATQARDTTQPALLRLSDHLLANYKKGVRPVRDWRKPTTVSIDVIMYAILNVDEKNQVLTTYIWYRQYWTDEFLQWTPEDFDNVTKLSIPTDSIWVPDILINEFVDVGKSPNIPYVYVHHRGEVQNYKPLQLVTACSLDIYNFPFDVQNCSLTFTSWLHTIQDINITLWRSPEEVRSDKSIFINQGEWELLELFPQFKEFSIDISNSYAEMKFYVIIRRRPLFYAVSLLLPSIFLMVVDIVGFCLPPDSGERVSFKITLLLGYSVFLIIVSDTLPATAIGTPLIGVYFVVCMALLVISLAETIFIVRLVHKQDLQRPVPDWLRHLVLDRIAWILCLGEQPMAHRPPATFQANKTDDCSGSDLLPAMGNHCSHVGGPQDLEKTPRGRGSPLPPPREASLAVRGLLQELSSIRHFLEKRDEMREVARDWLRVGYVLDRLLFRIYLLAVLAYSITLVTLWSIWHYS
The test can be described thus: Whole-cell patch-clamp, V219L mutant in HEK 293 cells. The class given is cell-based. Conditions: 1 mM 5-HT, n > 50. In general terms: The patch-clamp technique gives a direct electrical read-out from membranes.

Test [2] deals with T2, E213Q mutant 5-HT3 receptor (Mus musculus, UniProt P23979, E213Q).
T2 sequence (P23979 24-489 E213Q): T1 sequence (P23979 24-489 V219L) with E190Q, L196V
Put plainly: Whole-cell patch-clamp, 5-HT dose-response, E213Q mutant in HEK 293 cells. It counts as cell-based. To be noted: for Hill slope: E213Q, no added MgCl2.

Test [3] has as its target T3, E215Q mutant 5-HT3 receptor (Mus musculus, UniProt P23979, E215Q).
T3 sequence (P23979 24-489 E215Q): T1 sequence (P23979 24-489 V219L) with E192Q, L196V
To be noted: no added MgCl2.

Test [4] concerns the target T4, E277A/S297R mutant 5-HT3 receptor (Mus musculus, UniProt P23979, E277A/S297R).
T4 sequence (P23979 24-489 E277A/S297R): T1 sequence (P23979 24-489 V219L) with L196V, E254A, S274R
The class given is cell-based. Conditions: no added MgCl2.

The target in test [5] is T5, D204N mutant 5-HT3 receptor (Mus musculus, UniProt P23979, D204N).
T5 sequence (P23979 24-489 D204N): T1 sequence (P23979 24-489 V219L) with D181N, L196V
Put plainly: Whole-cell patch-clamp, D204N mutant in HEK 293 cells. It counts as cell-based. Conditions: 1 mM 5-HT, n > 50.

For test [6], the target named is T6, wild type 5-HT3 receptors (Mus musculus, UniProt P23979).
T6 sequence (P23979 24-489): T1 sequence (P23979 24-489 V219L) with L196V

The target of test [7] is T7, E218Q mutant 5-HT3 receptor (Mus musculus, UniProt P23979, E218Q).
T7 sequence (P23979 24-489 E218Q): T1 sequence (P23979 24-489 V219L) with E195Q, L196V
The class given is cell-based. To be noted: 1 mM 5-HT, n > 50.

Where a chain is given by its changes, count along the chain named. Like-named read-outs stand apart in the source and are kept apart here.

The term Hill slope denotes the slope factor of the fitted curve. Consider `NCCc1c[nH]c2ccc(O)cc12` [5-HT, 5-hydroxytryptamine], for which the “current response to 5-HT” value in test [1], in test [5] and in test [7] was “unable to elicit a response” each time. In addition, the “rates of desensitisation, faster than wild type responses” value in test [2] (E213Q versus wild type) is listed as roughly 4 fold. Also, the Hill slope in test [2] (Ext. Ca2+ 0 mM) was found to be 2.45 ± 0.22; in test [2] (Ext. Ca2+ 1 mM), 2.39 ± 0.16; in test [2] (Ext. Ca2+ 3 mM), 2.42 ± 0.16; in test [2] (Ext. Ca2+ 10 mM) it was 1.62 ± 0.19; in test [3] (Ext. Ca2+ 0 mM), 2.98 ± 0.11; in test [3] (Ext. Ca2+ 1 mM) it was 3.09 ± 0.39. Besides, the Hill slope is recorded as 2.54 ± 0.19 in test [3] (Ext. Ca2+ 3 mM); 1.90 ± 0.24 in test [3] (Ext. Ca2+ 10 mM); 2.04 ± 0.16 in test [4] (Ext. Ca2+ 0 mM); 1.64 ± 0.25 in test [4] (Ext. Ca2+ 1 mM); 1.62 ± 0.30 in test [4] (Ext. Ca2+ 3 mM); 1.35 ± 0.18 in test [4] (Ext. Ca2+ 10 mM). The Hill slope in test [6] (Ext. Ca2+ 0 mM, no added MgCl2) was 2.39 ± 0.18; in test [6] (Ext. Ca2+ 1 mM, no added MgCl2), 2.24 ± 0.19; in test [6] (Ext. Ca2+ 3 mM, no added MgCl2) it was 2.08 ± 0.19; in test [6] (Ext. Ca2+ 10 mM, no added MgCl2), 2.08 ± 0.26; in test [6] (physiological conditions (1.0 mM CaCl2, 1.0 mM MgCl2), n = 23), 2.31 ± 0.25. The I/I max is 0.99 ± 0.03 in test [4] (Ext. Ca2+ 3 mM) and 0.96 ± 0.02 in test [4] (Ext. Ca2+ 10 mM).
